Measured values from patent publication US20230024842A1, “MUPS TABLET COMPRISING RIBOFLAVIN” (DSM IP Assets B.V., priority 2019, published 2023).

Assay: Absorption of the water solution after 15 min (coloration / riboflavin release from coated particles)
Type: physicochemical
Settings: amount containing 10 mg riboflavin dissolved in 1000 ml water for 15 min; measured at 545 nm, spectrophotometer (Genesys 20)
Protocol: 20 mg of coated powder (containing 10 mg of Riboflavin) was dissolved in 1000 ml water for 15 min. Absorption of the solution was measured at 545 nm using a spectrophotometer (Genesys 20, thermo Scientific). Absorption of the solution was 0.065.
10 mg of riboflavin powder was dissolved in 1000 ml water for 15 min. Absorption of the solution was measured at 545 nm using a spectrophotometer (Genesys 20, thermo Scientific). Absorption of the solution was 0.386.
16.6 mg of coated powder (containing 10 mg of Riboflavin) was dissolved in 1000 ml water for 15 min. Absorption of the solution was measured at 545 nm using a spectrophotometer (Genesys 20, thermo Scientific). Absorption of the solution was 0.087.

Cc1cc2nc3c(=O)[nH]c(=O)nc-3n(C[C@H](O)[C@H](O)[C@H](O)CO)c2cc1C [Comparison Example 2, riboflavin]
Absorption of the solution: 0.386
